This is an account of results in US11421204B2, “Method of removing pluripotent cells from culture” (REPROCELL INCORPORATED, priority 2015, dated 2022).

“Also recorded” adds a separate entry of the source.

Data set [1] relates to iPS cell (cell line 201B7). Put plainly: Evaluation of effects of ALA and/or SFC for iPS cell without photoirradiation (cell form). The format is cell-based, human. To be noted: ALA 1000 micro-M; observed 0, 4, 24, 48 hours after addition; no PDT. The text has this:
As a pluripotent stem cell line, a human iPS cell line (iPSC) established at ReproCELL Inc. and subcultured 50 times was used. For on-feeder cultivation, the cell line of the pluripotent stem cell was maintained on mouse embryonic fibroblast (MEF) feeder cell (RCHEFC003, ReproCELL Inc.) processed by mitomycin C in a 60-mm polystyrene plate (dish) coated by ReproCoat (ReproCELL Inc.) with culture medium for pluripotent stem cells (Primate ES cell medium, RCHEMD001, ReproCELL Inc.) as like the conventional technique. ReproCoat was coated by using on a plate at the concentration of 0.2 micro-g/cm^2 and allowing to keep it at 4 degree-Celsius, overnight.
34 mg of ALA hydrochloride (M. W.=167.6, SBI Pharmaceuticals Co., Ltd.) was weighed, and 1000 micro-L of PBS (−) (Wako Pure Chemical Industries Ltd.) were added. Thereby, 200 mM ALA solution was prepared. The solution of the prepared ALA hydrochloride (hereinafter, it is only called as “ALA solution”) was stored on a freezer at −20 degree-C until use.

The subject of data set [2] is iPS cell (cell line 201B7). Put plainly: Evaluation of effects of ALA-PDT for iPS cell (cell form, ALP expression). The format is cell-based, human. To be noted: ALA 1000 micro-M and/or SFC 500 micro-M for 48 hours, blue LED 10 minutes, 24 hours afterward; Blue Alkaline Phosphatase Substrate Kit III.
The subject of data set [3] is iPS cell (cell line 201B7). The data set is described as follows: Comparison of effects by wavelength of photoirradiation of ALA-PDT for iPS cell. Type of data set: cell-based, human. To be noted: ALA 100 or 1000 micro-M for 4 hours, red or blue LED 10 minutes, 24 hours afterward. As for the experimental part:
Then, the effect by the difference of the wavelength in the photoirradiation of ALA-PDT for a human iPS cell was compared.
Then, the cultured iPS cell was irradiated with red LED (wavelength of 635 nm) or blue LED (wavelength of 405 nm) for 10 minutes, and the cell form was observed 24 hours afterward.
Culture conditions were: used cell line: 201B7 and used culture-medium: Primate ES Cell Medium.

In the next data set the test system is human iPS cell. Put plainly: Comparison of effects by ALA concentration of ALA-PDT for iPS cell (CCK8). The format is cell-based. As for the experimental part: Then, in ALA-PDT for the human iPS cell, the effects for changing the concentration of ALA were compared.
(§1) The iPS cell performed the passage process as well as an above-mentioned process was incubated for 2 to 4 minutes by using CTK (collagenase trypsin KSR) in 37 degree-C and then separated by pipetting.

Data set [4] has as its system normal human dermal fibroblast (HDF). The data set is described as follows: Comparison of effects by ALA concentration of ALA-PDT for HDF (CCK8). Type of data set: cell-based. To be noted: ALA 0-1000 micro-M, 4 hours, red LED 10 minutes, CCK8 24 hours afterward. The method, then:
Also, the commercial normal human dermal fibroblast (CA106K05a, Cell Applications Inc., HDF) was used for comparative example(s).
as §1
About a normal human dermal fibroblast (HDF), based on the equivalent conditions as above-mentioned “comparison of effects by ALA hydrochloride concentration and photoirradiation of ALA-PDT for iPS cell”, the effects of the ALA concentration and ALA-PDT were compared.

Data set [5] deals with neuron performed differentiation induction from the human iPS cell (ReproNeuro). Put plainly: Evaluation of effects of ALA-PDT for neuron originated from iPS cell. Type of data set: cell-based. As to conditions: red LED 10 minutes. The method, then: Then, the effects by ALA-PDT for the neuron performed differentiation induction from the human iPS cell (neuron originated from iPS cell) were evaluated. The used neuron was ReproNeuro. […] After that, the cell form was observed. Then, the cultured neuron was irradiated with red LED (wavelength of 635 nm) for 10 minutes, and the cell form was observed after 12-hour progresses (overnight). Then, it was exchanged the culture medium, which ALA was not included, and the cell form was observed after cultivating with exchanging the culture media for seven days.

Data set [6] has as its system hepatic cell originated from human iPS cell. Put plainly: Evaluation of effect of ALA-PDT for hepatic cells of iPS cell origin. The format is cell-based. The method, then: The effect by ALA-PDT was evaluated for a hepatic cell originated from human iPS cell equivalent to the above-mentioned Example 1. At this example, the culture condition was plating 500,000 cells per well in a 24-well plate, then each concentration (0, 250, 500 micro-M) of ALA hydrochloride was added to the cell on the seventh day, photoirradiation was performed for 10 minutes by red LED 24 hours afterward, then form observation was carried out on the next day and after. The irradiation power of red LED was the same as that of above-mentioned case.

A further data set relates to RC001 (iPS cell line). The data set is described as follows: ALA-PDT on iPS cell line RC001, cell survival by CCK8 (Example 2). Type of data set: cell-based, human. As to conditions: ALA hydrochloride 125-1000 micro-M, 4 or 24 hours, red LED 10 minutes, cell wraps r8-r10: SURVIVAL/PROLIFERATION SUPPRESSION
The method, then: (§2) As pluripotent stem cell lines, separately, for 201B7 cell line, which is equivalent as above-mentioned Example 1, and for RC001 and RC010 (ReproCELL Inc.), after maintaining as like above-mentioned Example 1, evaluations of the ALA effects were performed.
(§3) Then, each of them was cultivated with culture medium added ALA hydrochloride having concentration (0, 125, 250, 500, 1000 micro-M), respectively.

A further data set relates to RC010 (iPS cell line). The data set is described as follows: ALA-PDT on iPS cell line RC010, cell survival by CCK8 (Example 2). The format is cell-based, human. As to conditions: ALA hydrochloride 125-1000 micro-M, 4 or 24 hours, red LED 10 minutes, cell wraps r11-r13: SURVIVAL/PROLIFERATION SUPPRESSION
As for the experimental part: as §2, §3

The subject of data set [7] is 201B7 cell line (iPS cell). Put plainly: ALA-PDT on iPS cell line 201B7, cell survival by CCK8 (Example 2). To be noted: for rate of cell survival as compared with the control: 201B7.
[8] abbreviates: 250 micro-M ALA hydrochloride for 24 hours, red LED 10 minutes.

As for `NCC(=O)CCC(=O)O` [ALA, delta-aminolevulinic acid], the “influence on the iPS cell (cell form, undifferentiated form) without photoirradiation” value in [1] is listed as “influence on the iPS cell was not observed”. For the same compound, the “undifferentiated state by expression of ALP after ALA-PDT” value in [2] is on record as “ALP became negative; also recorded: an undifferentiated iPS cell was no longer observed”. In addition, in data set [3], the “expression of ALP (undifferentiated state) after ALA-PDT, red vs blue LED” value is reported as “it became impossible to maintain the undifferentiated state”. In addition, the “cell death of the iPS cell by ALA-PDT” value with human iPS cell (ALA concentration greater than or equal to 250 micro-M, 4 hours after addition red LED 10 minutes, CCK8 24 hours afterward) was no less than 60%. Also, in the data set with human iPS cell (ALA concentration greater than or equal to about 100 micro-M, other experiment (not shown)), the “cell death of iPS cell by ALA-PDT” value is no less than 10%. Besides, the “induction of cell death of HDF by ALA-PDT (CCK8)” value in data set [4] was “induction of the cell death by ALA-PDT was not observed”. Further, the “survival of neuron after ALA-PDT” value in data set [5] (ALA 250, 500 micro-M for 4 hours, cultivation continued for seven days) is “continued surviving without extinction and recovered as like the condition before ALA addition”. Besides, the “cell adhesion and neural spine seven days after ALA-PDT” value in data set [5] (seven days after adding 250 micro-M, 500 micro-M ALA) was “cell adhesion could be confirmed, and the neural spine was elongating in all of them”. Also, in data set [6] (setting [8]), the “form observation of hepatic cells 24 hours after LED irradiation” value is “the cell with clear cobblestone morphology and nucleus remained”. Besides, the “form observation of hepatic cells 48 hours after LED irradiation” value in data set [6] (setting [8]) is “the cell with cobblestone morphology and nucleus continued surviving”. In addition, the “protection of hepatic cells from ALA-PDT” value in [6] (250 micro-M ALA, preliminary experiment) is “it was protected”. The “survival of hepatic cells after ALA-PDT” value in data set [6] (ALA hydrochloride 250 and 500 micro-M, red LED 10 minutes, 24 and 60 hours after irradiation) is “survived under the various conditions of ALA-PDT were present”. Also, in [6] (ALA hydrochloride 250 vs 500 micro-M, red LED 10 minutes), the “state of survived hepatic cells, 250 micro-M versus 500 micro-M (visual inspection)” value is reported as “the state of the survived cells under the condition of 250 micro-M were better than that of 500 micro-M”. Further, the “EFFECT BY ALA” value with RC001 (iPS cell line) was “Survival and proliferation for each cell line were suppressed”; in the data set on RC010 (iPS cell line), “Survival and proliferation for each cell line were suppressed”; in data set [7] (cell line 201B7, ALA hydrochloride 125-1000 micro-M, 4 or 24 hours, red LED 10 minutes, CCK8, cell wraps r5-r7: SURVIVAL/PROLIFERATION SUPPRESSION) it was “Survival and proliferation for each cell line were suppressed”. Besides, the “rate of cell survival as compared with the control” value in data set [7] (250 micro-M ALA, after-addition time 4 hours, red LED 10 minutes, CCK8) is given as 65%; in data set [7] (after-addition time 24 hours, red LED 10 minutes, CCK8), 7%. For the same compound, the “rate of cell survival with after-addition time longer than 24 hours, compared with 24 hours” value in [7] (preliminary experiment) is listed as “there is no change the rate of cell survival”.

Regarding sodium ferrous citrate [SFC], the “undifferentiated state by expression of ALP after ALA-PDT” value in [2] is “maintaining the undifferentiated-like state”.
